Experimental data published in patent US20190070170A1, “METHOD OF S[…]-1” (Macau University of Science and Technology, priority 2017, published 2019).

Columns and labels:
PGE2 [1] = experiment: PGE2 production in LPS-stimulated RAW264.7 cells (ELISA); type: cell-based, mouse; conditions: SIN 160, 320 or 640 μM or 0.5 μM DEX 1 h, then LPS 100 ng/ml 18 h
Procedure: RAW264.7 and A549 cell lines were obtained from American Type Culture Collection (ATCC, Manassas, Va., USA) and maintained in DMEM (RAW264.7) or 1640 (A549) medium containing 10% FBS (Gibco-BRL, Grand Island, N.Y., USA) and antibiotics at 37° C. in a humidified atmosphere containing 5% CO2. RAW264.7 cells were plated in 6-well plates at a density of 4×10^5 cells and incubated for 24 h, then the cells were pretreated with different concentrations of SIN for 1 h before stimulating with LPS (100 ng/ml). A549 cells were seeded in 6-well plates at a density of 1×10^5 cells and incubated for 24 h, followed by pretreatment with SIN. A549 cells were then stimulated by IL-1β (1 ng/ml).
RAW264.7 cells and rat peritoneal macrophages were seeded in a 96-well plate at density of 1.4×10^4 and 1.5×10^5 cells, respectively. Various concentration of SIN was added to the cells for 1 hour before LPS stimulation. After stimulation with LPS for 18 h (RAW264.7 cells) or 24 h (rat peritoneal macrophages), MTT solution was added to each well and incubated for another 4 hours. 100 μl 10% SDS-HCl solution was added to each well for overnight to dissolve the formazan dye. The optical density was measured at 570 nm against a reference wavelength of 650 nm using a microplate UV/VIS spectrophotometer (Tecan, Mannedorf, Switzerland). […]

mPGES-1 [2] = experiment: mPGES-1 protein expression in LPS-activated rat peritoneal macrophages (western blotting); type: cell-based; conditions: SIN or DEX 1 h, LPS 24 h
Procedure: (§1) Sprague-Dawley (SD) rats from the University of Hong Kong were housed in cages with free access to food and water. Peritoneal macrophages of SD rats were isolated as described in Liu J. et al., Pharmacological research 2016, 111:303-315. Briefly, untreated rats were sacrificed and after laparotomy, about 50 ml cold sterile Hank's balanced salt solution (HBSS) was used to lavage the peritoneal cavity at twice, and then the peritoneal lavage fluid was collected and centrifuged at 1500 rpm for 10 min. The cell pellets was suspended at a density 1.5×10^6 cells/ml in pre-hearted DMEM medium with 10% heat-inactivated FBS, penicillin G (100 units/ml), streptomycin ([…]), and L-glutamine (2 mM), followed by seeding in 6-well plates at a density of 4.5×10^6 cells and incubation for 2 h. Then the medium were discarded to remove the non-adherent cells. The adherent cells were further washed for two times with pre-heated DMEM medium to remove floating cells. Next, cells were pre-treated with various concentration of SIN for 1 h, followed by stimulation with LPS (1 μg/ml).
(§2) Whole-cell and nuclear proteins were obtained using RIPA lysis buffer (CST, Boston, Mass., USA) and Nuclear and Cytoplasmic Extraction Reagents kit from Thermo Scientific (Asheville, N.C., USA), respectively. […] The levels of protein expression were measured using Odyssey v3.0 software from Li-COR (Lincoln, Nebr., USA).

cPLA2 = cPLA2 protein expression in LPS-activated rat peritoneal macrophages (western blotting); type: cell-based; conditions: SIN or DEX 1 h, LPS 24 h
Procedure: as §1, §2

COX-2 = COX-2 protein expression in LPS-activated rat peritoneal macrophages (western blotting); type: cell-based; conditions: SIN or DEX 1 h, LPS 24 h
Procedure: as §1, §2

PGE2 [3] = experiment: RNA interference experiment of mPGES-1: PGE2 production in mPGES-1 knockdown RAW264.7 cells; type: cell-based, mouse; conditions: mPGES-1 siRNA RAW264.7 cells; SIN 640 μM or DEX 0.5 μM 1 h, LPS 10 ng/mL 18 h
Procedure: RAW264.7 cells were transfected with ON-TARGETplus SMARTpool mPGES-1 siRNA (mPGES-1 siRNA) or nonspecific siRNA (NS siRNA) using HiPerFect transfection reagent according to the manufacturer's recommended protocols. After 24 h of transfection, the cells were treated with or without SIN (640 μM) or DEX (0.5 μM) in complete growth medium. After 1 h, all groups were stimulated with LPS (10 ng/mL) for 18 h except the control group. Then the cell culture media were collected and stored at −20° C. for later analysis of the levels of PGE2. Cells were harvested for qRT-PCR, the mouse primers used are listed as follows: […]

mPGES-1 [4] = experiment: mPGES-1 protein in microsomes of inflamed paw of carrageenan-induced rats (western blotting); type: in vivo, SD rats; conditions: SIN 25, 50, 100 mg/kg or DEX 2 mg/kg i.p.
Procedure: The model of carrageenan-induced paw edema was performed with SD rats (150-200 g). […] Briefly, rats were fasted for 12 h before experiment and intraperitoneal injection was performed with three different doses (25, 50 and 100 mg/kg) of SIN, or DEX (reference drug, 2 mg/kg) or 0.9% saline (Vehicle and Normal group rats), at 2 h prior to the induction of paw edema. Paw edema was induced by subcutaneous injection of 100 μl of 1% (w/v) freshly prepared λ-carrageenan (Sigma, St Louis, Mo., USA) diluted in saline in the right hind foot pad. 100 μl sterile saline was injected to the rats in the right hind paw as normal control.
After accomplish the experiment, rats were sacrificed by injection of dorminal, which contains 20% pentobarbital and followed by cervical dislocation. The paw tissues were removed and freshly frozen in liquid nitrogen immediately and stored at −80° C.
Frozen paws were pulverized in liquid nitrogen using a stainless steel mortar and pestle, then re-suspended in 8 volumes of ice-cold PBS from Invitrogen (San Diego, Calif., USA) with 2.6 mM DTT from Promega (Madison, Wis., USA) and 2×Complete Protease Inhibitor mixture from Roche (Mannheim, Germany), and homogenized on ice bath using a tissue homogenizer from T25 digital, IKA (Stanfen, Germany) at 10,000 rpm/min for 5 min. […] The protein concentrations were measured using a Bio-Rad protein assay kit (Hercules, Calif., USA). […]

[5] = test system: mitogen-activated protein kinase (MAPK); experiment: MAPK pathway (p-JNK, p-p38, p-ERK, p-c-Jun) in LPS-stimulated rat peritoneal macrophages (western blotting); type: cell-based; conditions: SIN 1 h, LPS 1 μg/ml 15 min or 1 h
Procedure: as §1, §2

NO = NO production in LPS-stimulated rat peritoneal macrophages (Griess reagent); type: cell-based; conditions: pretreatment 1 h, LPS 1 μg/ml 24 h
Procedure: as §1
(§3) RAW264.7 cells and rat peritoneal macrophages were seeded in a 96-well plate at density of 1.4×10^4 and 1.5×10^5 cells, respectively. […] The optical density was measured at 570 nm against a reference wavelength of 650 nm using a microplate UV/VIS spectrophotometer (Tecan, Mannedorf, Switzerland). […]

TNF-α = TNF-α level in LPS-stimulated rat peritoneal macrophages (ELISA); type: cell-based; conditions: pretreatment 1 h, LPS 1 μg/ml 24 h
Procedure: as §1, §3

IL-6 = IL-6 level in LPS-stimulated rat peritoneal macrophages (ELISA); type: cell-based; conditions: pretreatment 1 h, LPS 1 μg/ml 24 h
Procedure: as §1, §3

COC1=C[C@@H]2[C@@H]3Cc4ccc(OC)c(O)c4[C@]2(CCN3C)CC1=O [SIN, sinomenine]
PGE2 production (PGE2 [1]): significant inhibition of PGE2 production in a dose dependent manner | mPGES-1 protein expression (mPGES-1 [2]): significantly and dose-dependently inhibited | cPLA2 expression (cPLA2): no influences | COX-2 protein expression (COX-2): did not suppress | change of the compound's inhibitory effect on PGE2 production by mPGES-1 knockdown (PGE2 [3]): not affected | mPGES-1 protein expression in inflamed paw tissues (mPGES-1 [4]): strongly down-regulated | influence on MAPK pathway [5]: No observable effects | NO production (nitrite) (NO): significantly inhibited | TNF-α production (TNF-α): significantly inhibited | IL-6 production (IL-6): significantly inhibited
